According to patent US5783700A, “Quinolic acid derivatives” (priority 1997, dated 1998):
“Also recorded” adds a separate entry of the source.

How the values were obtained:
[1] = Rotorod test for drug induced neurological deficit (neurotoxicity), ip; type: in vivo, male Carworth Farms no. 1 mice; details: for Rotorod: effective or [maximum ineffective] intraperitoneal dose: neurotoxicity, 30 min or 4 hr, 30, 100, 300 mg/kg, bracketed = maximum ineffective dose (given as >), unbracketed = effective (neurotoxic) dose (=)
Procedure: (§1) Biological Testing--Compounds were screened for anticonvulsant activity in male Carworth Farms no. 1 mice. The maximal electroshock (MES), subcutaneous Metrazol (pentylenetetrazole) (Met), and threshold tonic extension (TTE) tests were used to evaluate compounds for anticonvulsive activity. A rotorod protocol was used to determine neurotoxicity. Solutions for injection were prepared in 30% polyethylene glycol 400. Except for the TTE tests, animals were dosed ip at two different time periods: either 30 min. or 4 hr prior to testing. At each time period, three groups of four mice were tested at the following dose levels: 30, 100, and 300 mg/kg. This treatment protocol was followed for MES, Met, and rotorod testing.
Animals were tested for drug induced neurological deficit using a rotorod. Either 30 min. or 4 hr after treatment, the animal was placed on a 1-inch diameter knurled plastic rod rotating at 6 rpm. Neurological deficit was defined as the failure of the animal to remain on the rod for 1 min.

[2] = molecular target: T1, glycine binding site on the NMDA receptor (Rattus norvegicus, UniProt P35439); assay: Inhibition of [^3 H]-5,7-dichlorokynurenic acid specific binding; type: rat (cerebral cortex membranes); details: for [^3 H]-5,7-dichlorokynurenic acid displacement: 10 uM; for remaining activity at 10 µM: 0.25 h, pH 7.4, 10 uM test compound, read-out: Inhibition of [^3 H]-5,7-Dichlorokynurenic Acid Binding, % of Control; for remaining activity at 10 µM / Inhibition of [^3 H]-5,7-Dichlorokynurenic Acid Binding, % of Control: 10 nM radioligand, pH 7.4, mean ± SEM of three determinations; for Inhibition of [^3 H]-5,7-Dichlorokynurenic Acid Binding, % of Control: 10 uM test compound, 15 min, 10 µM
T1 construct: Membranes were prepared from rat cerebral cortex; from tissue; host or cells: rat cerebral cortex, "buffy coat" membrane fragments
Procedure: Binding Studies--The procedure of Baron et al. (1991) was used to assay for the inhibition of specific binding at the glycine binding site on the NMDA receptor. The labeled ligand used in this assay was [^3 H]-5,7-dichlorokynurenic acid (15.8 Ci/mmol) from DuPont-New England Nuclear (Boston, Mass.). […] Inhibition of specific binding was determined for selected compounds at a concentration of 10 uM using "buffy coat" membrane fragments (Jones et al., 1989). Membranes were prepared from rat cerebral cortex and assays were conducted in 50 mM HEPES-KOH buffer (Sigma, St. Louis, Mo.) at pH 7.4. Membranes were incubated in a final volume of 1 mL containing 10 nM [^3 H]-5,7-dichlorokynurenic acid. Incubation was continued for 15 min. at 4° C. Nonspecific binding was determined in the presence of 1 mM glycine and subtracted. Binding was terminated by centrifugation at 48,000×g for 10 min. Each of the resultant pellets was washed rapidly with 1 mL ice water and solubilized with 1 mL of a tissue solubilizer (Solvable, DuPont NEN). The solubilized samples were each dissolved in 10 mL 3a70B Complete Counting Cocktail (RPI, Mount Prospect, Ill.). Membrane bound radioactivity was determined using a Beckman LS-5000TD liquid scintillation counter. This screening procedure was conducted in triplicate in three separate tests. Results are presented as percent of control (±SEM, standard error of the mean).

[3] = Overall in vivo activity (MES, Met, TTE, rotorod); parameters: species or system male Carworth Farms no. 1 mice; details: ip
Procedure: as §1
Maximal electroshock (MES) induced seizures were elicited with a 60 cycle alternating current of 50 mA intensity (five to seven times the intensity necessary to evoke minimal electroshock threshold seizures). Current was delivered via corneal electrodes for 0.2 sec. A drop of 0.9% saline was instilled in the eye prior to application of the electrodes. Abolition of the hindlimb tonic extension component of the seizure was defined as protection. […]
The threshold tonic extension (TTE) test is similar to the MES screen but uses a lower level of electrical current (Piredda et al., 1985). […] An ED50 value was determined from a log dose-response plot of the resulting data. […]

TTE seizure = assay: Threshold tonic extension (TTE) test, ip; type: in vivo, male Carworth Farms no. 1 mice; details: for minimal effective dose at 100 mg/kg: ip 100 mg/kg, 1/4 to 4 hr post treatment, 12.5 mA, bracketed = maximum ineffective dose (given as >), unbracketed = effective dose (=), read-out: TTE: effective or [maximum ineffective] intraperitoneal dose
Procedure: as §1
The threshold tonic extension (TTE) test is similar to the MES screen but uses a lower level of electrical current (Piredda et al., 1985). The lower current makes the test more sensitive but less discriminate than the MES screen. Twenty mice were pretreated ip with 100 mg/kg of the test compound. At time intervals of 1/4, 1/2, 1, 2, and 4 hr post treatment, 4 mice were challenged with 12.5 mA of electrical current for 0.2 sec. via corneal electrodes. This current produces a TTE seizure in untreated animals. Protection was defined as an absence of seizures. Additional TTE testing was conducted on compound 10 to determine the ED50 value for the observed protective effect. In this case, 6 groups containing either 8 or 16 animals were injected ip and tested two hours following treatment. Each group received a specified dose ranging from 20-500 mg/kg. An ED50 value was determined from a log dose-response plot of the resulting data.

MES induced seizures = assay: Maximal electroshock (MES) anticonvulsant test, ip; type: in vivo, male Carworth Farms no. 1 mice
Procedure: as §1
Maximal electroshock (MES) induced seizures were elicited with a 60 cycle alternating current of 50 mA intensity (five to seven times the intensity necessary to evoke minimal electroshock threshold seizures). Current was delivered via corneal electrodes for 0.2 sec. A drop of 0.9% saline was instilled in the eye prior to application of the electrodes. Abolition of the hindlimb tonic extension component of the seizure was defined as protection.

[4] = system: NMDA-associated PCP binding site; assay: [^3 H]-TCP binding displacement; type: rat (cerebral cortex membranes)
Procedure: Compound 10 was also screened for activity at the NMDA-associated PCP binding site, and, additionally, for activity at the GABA-A neuroreceptor. To determine possible effects on PCP binding, N-(1-(2-thienyl)cyclohexyl)-3,4-[^3 H]-piperidine ("[^3 H]-TCP") binding was assayed using the technique of Johnson et al. (1988). TCP is the thienyl derivative of PCP. Binding of [^3 H]-TCP to the NMDA receptor complex can be modulated by glycine agonists and antagonists (Benavides et al., 1988). DuPont-New England Nuclear was the source for [^3 H]-TCP (44.5 Ci/mmol). Membranes were prepared as described above. Assays were conducted in 5 mM Tris-acetate (pH 7.4) buffer containing 10 uM L-glutamic acid and 3 uM glycine. […] Nonspecific binding was determined in the presence of 30 uM PCP and subtracted. Samples were incubated at 24° C. for 1 hr. Binding was terminated using a Brandel M-24C cell harvester employing rapid filtration through GF/C glass filters presoaked in 0.1%(v/v)polyethylenimine. Filters were washed rapidly with two 1 mL aliquots of ice-cold water. Samples were run in triplicate at six different drug concentrations ranging from 1 uM to 5 nM. The experiment was repeated with buffer containing 0.1 mM L-glu and no added glycine. Two separate assays were conducted for each experiment.

GABA-A neuroreceptor = assay: [^3 H]-muscimol competition binding; type: rat (cerebral cortex membranes); details: 5 nM [^3 H]-muscimol, compound 10 uM to 10 nM
Procedure: Compound 10 was screened for activity at the GABA-A neuroreceptor complex using [^3 H]-muscimol (20.0 Ci/mmol), also from DuPont-New England Nuclear. The filtration method reported by Williams and Risley (1979) was used for this assay. Membranes were initially prepared as described previously and frozen at -20° C. in distilled water for 24 hr. After thawing, membranes were resuspended in 50 mM Tris-acetate buffer (pH 7.0) which contained 0.1% (v/v) saponin (Sigma). The tissue was centrifuged at 48,000×g for 20 min. and the resulting pellet was resuspended in 30 volumes of 50 mM Tris-acetate buffer (pH 7.0) containing 100 mM KCI. The tissue was again centrifuged at 48,000×g for 20 min. After decanting the supernatant, the pellet was covered with fresh KCI containing Tris-acetate buffer and frozen for 24 hr.
On the day of the assay, the tissue was thawed and resuspended in 30 volumes of 50 mM Trisacetate (pH 7.0) with 100 mM KCI and centrifuged at 48,000×g for 20 min. This washing procedure was repeated twice. The final pellet was resuspended in 32 mL buffer. Membranes were incubated in a final volume of 1 mL with 5 nM [^3 H]-muscimol at 4° C. for 30 min. Samples were run in triplicate employing six different concentrations of compound 10 ranging from 10 uM to 10 nM. The assay was performed in duplicate. Each sample, including controls, contained 1.0% dimethyl sulfoxide (DMSO) to insure solubilization of the test compound. Nonspecific binding was determined in the presence of 200 uM gamma-aminobutyric acid (GABA) and subtracted. Binding was terminated using a Brandel M-24C cell harvester employing rapid filtration through GF/C glass fiber filters presoaked in 0.1% (v/v) polyethylenimine. Filters were washed with 1 mL cold water. Radioactivity bound to the filters was determined by scintillation counting.

Structure (SMILES) | Rotorod: effective or [maximum ineffective] intraperitoneal dose [1] [mg/kg] | remaining activity at 10 µM [2] [%] | minimal effective dose at 100 mg/kg (TTE seizure; Mus musculus) [mg/kg] | further results
CCN(CC)C(=O)Nc1cc(C(=O)OC)nc2cc(Cl)cc(Cl)c12 [Compound 1] | > 300 | 58 ± 8 | – | [^3 H]-5,7-dichlorokynurenic acid displacement [2]: active; in vivo / CNS anticonvulsant activity [3]: no in vivo activity; also recorded: no CNS activity; also recorded: did not have any in vivo effects
CCOC(=O)c1cc(NC(=O)N(CC)CC)c2c(Cl)cc(Cl)cc2n1 [Compound 2] | > 300 | – | 100 | –
CCN(CC)C(=O)Nc1cc(C(=O)O)nc2cc(Cl)cc(Cl)c12 [Compound 3] | 300 | – | > 100 | neurotoxicity in rotorod test [1]: neurotoxic
CCOC(=O)c1cc(NC(=O)N(C)C)c2c(Cl)cc(Cl)cc2n1 [Compound 4] | > 300 | 57 ± 1 | > 100 | [^3 H]-5,7-dichlorokynurenic acid displacement [2]: active; in vivo / CNS anticonvulsant activity [3]: no in vivo activity; also recorded: no CNS activity; also recorded: did not have any in vivo effects
CN(C)C(=O)Nc1cc(C(=O)O)nc2cc(Cl)cc(Cl)c12 [Compound 5] | > 300 | – | – | MES activity (MES induced seizures): demonstrated activity
CCCCN(CCCC)C(=O)Nc1cc(C(=O)OCC)nc2cc(Cl)cc(Cl)c12 [Compound 6] | > 300 | 76 ± 6 | 100 | –
CCCCN(CCCC)C(=O)Nc1cc(C(=O)O)nc2cc(Cl)cc(Cl)c12 [Compound 7] | > 300 | 20 ± 11 | 100 | Inhibition of [^3 H]-5,7-Dichlorokynurenic Acid Binding, % of Control [2]: 20-30 % of Control
CCOC(=O)c1cc(NC(=O)N(c2ccccc2)c2ccccc2)c2c(Cl)cc(Cl)cc2n1 [Compound 8] | > 300 | 77 ± 7 | 100 | –
O=C(O)c1cc(NC(=O)N(c2ccccc2)c2ccccc2)c2c(Cl)cc(Cl)cc2n1 [Compound 9] | > 300 | 25 ± 5 | 100 | Inhibition of [^3 H]-5,7-Dichlorokynurenic Acid Binding, % of Control [2]: 20-30 % of Control
COC(=O)c1cc(NC(=O)N(c2ccccc2)c2ccccc2)c2c(Cl)cc(Cl)cc2n1 [Compound 10, 2-methyl carboxylate-5,7-dichloro-4-[[(diphenylamino)-carbonyl]amino]-quinoline] | > 300 | 42 ± 7 | 100 | ED50 (TTE seizure; Mus musculus, 2 h, ip, two hours following treatment, doses 20-500 mg/kg): 134 mg/kg; S.E. of slope of TTE dose-response (TTE seizure; log dose-response plot, ip): 0.44; slope of TTE dose-response (TTE seizure; log dose-response plot, ip): 1.9; Inhibition of [^3 H]-5,7-Dichlorokynurenic Acid Binding, % of Control [2]: 42 % of Control; effect on [^3 H]-TCP binding ([4]; 10 uM L-glutamic acid and 3 uM glycine, compound 1 uM to 5 nM): No significant effect; effect on [^3 H]-TCP binding ([4]; 10 uM L-glutamic acid and 3 uM glycine, compound 1 uM to 5 nM, listed as 2-methyl carboxylate-5,7-dichloro-4-[[(diphenylamino)-carbonyl]amino]-quinoline): No significant effect; effect on [^3 H]-TCP binding ([4]; L-glutamate, no added glycine, compound 5 uM to 10 nM): no significant effect; PCP activity at the NMDA receptor ([4]; summary statement): tested negative; effect on [^3 H]-muscimol binding (GABA-A) (GABA-A neuroreceptor): No significant difference from control; also recorded: no effect; also recorded: No significant effects were observed; effect on [^3 H]-muscimol binding (GABA-A) (GABA-A neuroreceptor; listed as 2-methyl carboxylate-5,7-dichloro4-[[(diphenylamino)-carbonyl]amino]-quinoline): tested negative; effect on [^3 H]-muscimol binding (GABA-A) (GABA-A neuroreceptor; listed as 2-methyl carboxylate-5,7-dichloro-4-[[(diphenylamino)-carbonyl]amino]-quinoline): No significant effects were observed
CCOC(=O)c1cc(NC(=O)N(c2ccccc2)c2cccc(OC)c2)c2c(Cl)cc(Cl)cc2n1 [Compound 11] | > 300 | – | 100 | TTE anticonvulsant activity (TTE seizure; ip, 100 mg/kg): active
COc1cccc(N(C(=O)Nc2cc(C(=O)O)nc3cc(Cl)cc(Cl)c23)c2ccccc2)c1 [Compound 12] | > 300 | – | – | MES activity (MES induced seizures): demonstrated activity
